Source: PMC9822133, “Design, Synthesis and Antiproliferative Evaluation of Bis-Indole Derivatives with a Phenyl Linker: Focus on Autophagy” (Molecules, 2022)

Assays:
A549 = assay: MTT screening assay, A549; assay type: cell-based; conditions: Homo sapiens, 72 h incubation
Excerpt: The ability of newly synthesized indole phytoalexins to suppress cell proliferation was screened in vitro on eight cancer cell lines including human colorectal carcinoma (Caco-2 and HCT116), human cervical cancer (HeLa), human breast adenocarcinoma (MCF-7, MDA-MB-231), human alveolar adenocarcinoma (A549) and human leukemic T cell lymphoma (Jurkat), and two non-cancer cell lines (MCF-10A, Cos-7).
The cell lines used for this study were Caco-2 (human colorectal adenocarcinoma cell line, American Type Culture Collection, Manassas, VA, USA (ATCC)), HCT116 (human colorectal carcinoma cells European Collection of Authenticated Cell Cultures, Salisbury, UK (ECACC)), HeLa (human cervical tumor cells, ECACC), MCF-7 (human breast tumor cells, ECACC), MDA-MB-231 (human breast tumor cells, ATCC), A549 (human lung carcinoma cells, ATCC), BLM (human melanoma lung metastases, a gift from prof. K. Smetana, Institute of Anatomy, Charles University in Prague), Jurkat (human leukemia cell line, ECACC), Cos-7 (immortalized monkey kidney fibroblasts, ATCC) and MCF-10A (human mammary epithelial cells, ATCC). Caco-2, MCF-7, BLM, Cos-7 and A549 cells were cultured in Dulbecco’s Modified Eagle’s Medium (DMEM) with high glucose and sodium pyruvate (GE Healthcare, Piscataway, NJ, USA); HCT116 lines, HeLa, MDA-MB-231 and Jurkat were cultured in RPMI-1640 medium; and MCF10A cells were cultured in high glucose DMEM/F12 (Dulbecco’s Modified Eagle’s Medium F12). The media were enriched with 10% fetal bovine serum (FBS) and a 1% solution of a mixture of antibiotics and antimycotics 1× HyClone™ (GE Healthcare, Chicago, IL, USA). DMEM/F12 medium was supplemented with epidermal growth factor (EGF) (20 ng/mL final), hydrocortisone (0.5 μg/mL final) and insulin (10 μg/mL final) (Sigma-Aldrich Chemie, Steinheim, Germany). The cells were placed in an incubator at 37 °C with humidified air containing 5% CO2.
The MTT assay is a colorimetric method used to quantify the metabolic activity of cells. MTT (3-(4,5-di-methylthiazol-2-yl)2,5-diphenyltetrazolium bromide) (Sigma-Aldrich Chemie, Steinheim, Germany) is reduced by oxidoreductases in the cytosol of cells to light-absorbing formazan, the presence of which can be measured spectrophotometrically and determines the half-maximal inhibitory concentration (IC50). A549 cells were seeded in […] culture plates at a density of 5 × 10^3 per well. […]
We also incubated the cells with chloroquine at concentrations of 5–20 µM, which was added 1 h before the addition of the test substance, and cisplatin at concentrations of 3–10 µM. […] After 24 h, the absorbance was measured at a wavelength of 540 nm using an automated Cytation™ 3 Cell Imaging Multi-Mode Reader (Biotek, Winooski, VT, USA). […]

p62/SQSTM1 = assay: Western blot, p62; assay type: cell-based, human; conditions: A549, 24, 48, 72 h, p < 0.001 vs DMSO
Excerpt: Protein p62, also known as sequestosome 1, is a multifunctional, classic autophagy receptor, considered together with LC3AB as an important marker of ongoing autophagic flux. It is involved in cell signaling, metabolism, oxidative stress and cell death. Its main function is the degradation of misfolded proteins through the ubiquitin–proteasome system (UPS) and autophagy, thereby maintaining intracellular proteostasis. P62 binds the autophagosomal membrane protein LC3 and brings p62-containing cytoplasmic contents to the autophagosome for degradation. […] This protein is normally degraded during autophagy after interaction with LC3 II [26]. On the other hand, accumulation of p62 has also been cited in cancer cells exposed to a variety of potential anticancer compounds [27, 28, 29].
(§1) A549 cells were seeded on Petri dishes (55 cm^2) at a density of 1 × 10^6 and allowed to culture in the medium. After 24 h, the test substance was added, and the cells were incubated for 24, 48 and 72 h. […] After lysis, the cells were sonicated, and the protein concentration in the samples was quantified using the Pierce® BCA Protein Assay Kit (Thermo Scientific, Rockford, IL, USA) and measured by an automated Cytation™ 3 Cell Imaging Multi-Mode Reader (Biotek) at a wavelength of 570 nm. […]

Phospho-AMPKα = assay: Western blot, phospho-AMPK; assay type: cell-based, human; conditions: A549, 24, 48, 72 h
Excerpt: ULK1/AMPK. ULK1 is a serine/threonine protein kinase. The ULK1 complex controls the formation of the phagophore, the initial autophagosomal precursor membrane structure. Upon induction of autophagy, the ULK1 complex translocates to autophagy initiation sites and regulates the recruitment of a second kinase complex, VPS34. ULK1 can be inhibited by phosphorylation by mammalian target of rapamycin complex 1 (mTORC1) or activated after AMP-activated protein kinase (AMPK) phosphorylation. Under conditions of nutrient deficiency, AMPK is activated, which directly activates ULK1. The kinase is phosphorylated, i.e., activated by an increased AMP/ATP ratio due to cellular and environmental stress. AMPK also inactivates mTORC1 and thus blocks its inhibitory action on autophagy activation.
as §1

Q: Which results are given for `CC(C)(C)OC(=O)n1cc(CNC(=O)Nc2ccc(NC(=O)NCc3cn(C(=O)OC(C)(C)C)c4ccccc34)cc2)c2ccccc21` [Compound 49, N,N′-(1,4-phenylene)bis{N′-[1-(tert-butoxycarbonyl)indol-3-yl]methyl (urea)}]?
A: IC50 (A549): 8.7 ± 0.1 µM; p62 expression (p62/SQSTM1): significant increase; phosphorylated form of AMPK (Phospho-AMPKα): significant increase
